Data as given in ChEMBL document CHEMBL3045029, “Synthesis and antimicrobial activities of some isoxazolyl thiazolyl pyrazoles” (2012).

Assays:
Type in all cases: functional
Escherichia coli = assay: Antibacterial activity against Escherichia coli MTCC 42 after 24 hr by serial dilution method
Staphylococcus aureus = assay: Antibacterial activity against Staphylococcus aureus MTCC 7443 after 24 hr by serial dilution method
Aspergillus niger = assay: Antifungal activity against Aspergillus niger MTCC 282 after 120 hr by serial dilution method
Bacillus subtilis = assay: Antibacterial activity against Bacillus subtilis MTCC 441 after 24 hr by serial dilution method
Candida albicans = assay: Antifungal activity against Candida albicans MTCC 183 after 48 hr by serial dilution method

C/C(=N\Nc1nc(-c2ccc(Cl)cc2)cs1)c1c(O)cc(C)oc1=O
-logMIC (Escherichia coli): 1.478
-logMIC (Staphylococcus aureus): 1.478
-logMIC (Aspergillus niger): 1.478
-logMIC (Bacillus subtilis): 1.478
-logMIC (Candida albicans): 1.478

COc1ccc(-c2csc(N/N=C(\C)c3c(O)cc(C)oc3=O)n2)cc1
-logMIC (Escherichia coli): 1.472
-logMIC (Staphylococcus aureus): 1.472
-logMIC (Aspergillus niger): 1.472
-logMIC (Bacillus subtilis): 1.171
-logMIC (Candida albicans): 1.171

Cc1ccc(-c2csc(-n3[nH]c(C)c(-c4cc(C)no4)c3=O)n2)cc1
-logMIC (Escherichia coli): 1.75
-logMIC (Staphylococcus aureus): 1.75
-logMIC (Aspergillus niger): 1.75
-logMIC (Bacillus subtilis): 1.75
-logMIC (Candida albicans): 1.449

Cc1cc(-c2c(C)[nH]n(-c3nc(-c4ccccc4)cs3)c2=O)on1
-logMIC (Escherichia coli): 1.733
-logMIC (Staphylococcus aureus): 1.733
-logMIC (Aspergillus niger): 1.432
-logMIC (Bacillus subtilis): 1.733
-logMIC (Candida albicans): 1.432

OC(Cn1cncn1)(Cn1cncn1)c1ccc(F)cc1F [FLUCONAZOLE]
-logMIC (Aspergillus niger): 3
-logMIC (Candida albicans): 3

CC(=O)CC(=O)c1c(C)[nH]n(-c2nc(-c3ccccc3)cs2)c1=O
-logMIC (Escherichia coli): 1.435
-logMIC (Staphylococcus aureus): 1.435
-logMIC (Aspergillus niger): 1.435
-logMIC (Bacillus subtilis): 1.435
-logMIC (Candida albicans): 1.435

C/C(=N\Nc1nc(-c2ccc(C)cc2)cs1)c1c(O)cc(C)oc1=O
-logMIC (Escherichia coli): 1.453
-logMIC (Staphylococcus aureus): 1.453
-logMIC (Aspergillus niger): 1.435
-logMIC (Bacillus subtilis): 1.453
-logMIC (Candida albicans): 1.152

C/C(=N\Nc1nc(-c2ccccc2)cs1)c1c(O)cc(C)oc1=O
-logMIC (Escherichia coli): 1.435
-logMIC (Staphylococcus aureus): 1.737
-logMIC (Aspergillus niger): 1.435
-logMIC (Bacillus subtilis): 1.435
-logMIC (Candida albicans): 1.435

CCn1cc(C(=O)O)c(=O)c2cc(F)c(N3CCNCC3)cc21 [NORFLOXACIN]
-logMIC (Escherichia coli): 2.698
-logMIC (Staphylococcus aureus): 2.698
-logMIC (Bacillus subtilis): 2.698

Cc1cc(-c2c(C)[nH]n(-c3nc(-c4ccc(Cl)cc4)cs3)c2=O)on1
-logMIC (Escherichia coli): 1.775
-logMIC (Staphylococcus aureus): 2.077
-logMIC (Aspergillus niger): 1.474
-logMIC (Bacillus subtilis): 1.775
-logMIC (Candida albicans): 1.477

COc1ccc(-c2csc(-n3[nH]c(C)c(-c4cc(C)no4)c3=O)n2)cc1
-logMIC (Escherichia coli): 1.47
-logMIC (Staphylococcus aureus): 1.771
-logMIC (Aspergillus niger): 1.771
-logMIC (Bacillus subtilis): 1.771
-logMIC (Candida albicans): 1.47
